From PubChem BioAssay AID489041 (Sanford-Burnham Center for Chemical Genomics, 2010) come the findings set out here.

Calls of active or inactive are those of the source. How the calls were made is not given here.

For the assay, the system named is HEK-293T NF-kB luciferase reporter counterscreen, luminescence. Nature of the assay: inhibitors of HEK-293T NF-kB luciferase – HEK-293T cells, luminescence, counter-screen for T-cell antigen receptor NF-kB inhibitors, dose response (AID 489041). (A counterscreen serves to expose hits that act by an unwanted route or on another target.)
Take `COc1cccc(N2CCN(C(=O)c3ccc(CS(=O)c4ccccc4C)o3)CC2)c1` (configuration not stated): the half-maximal inhibitory concentration (IC50) (in general, the concentration needed to halve the response being measured) is 8.21 µM.

On to `CCOc1ccc(N/C(N)=N/c2nc(CSc3nnc(C)s3)cc(=O)[nH]2)cc1`, for which the IC50 was 29.9 µM (inactive).

`CCCCc1ccc(NC(=O)c2ccc(N(C)S(C)(=O)=O)cc2)cc1`: the IC50 was > 80 µM (inactive).

For `O=C1C=CCC(/C=C/c2ccccc2)O1` (configuration not stated), the IC50 was 22.2 µM (inactive).

Consider `CCOC(=O)c1ccc2nc(Nc3nc4ccc(F)cc4s3)sc2c1`, for which the IC50 is 1.14 µM.

For `CC(C)(C)c1cc(C=C(C#N)C#N)cc(C(C)(C)C)c1O`, the IC50 is 13.1 µM.

With `COC(=O)C(Cc1ccc(N(CCCl)CCCl)cc1)N=Cc1ccccc1O` (configuration not stated), the IC50 was 43.4 µM (inactive).

Regarding `Cc1ccc(S(=O)(=O)Nc2cccc(-c3ccc4nncn4n3)c2)cc1`, the IC50 is 18.4 µM.

For `Cc1ccc(NC(=O)C2=C(c3ccccc3)S(=O)(=O)CCS2(=O)=O)cc1`, the IC50 was 8.74 µM.

Turning to `CCOc1ccc(NC(=O)c2cc3c(C)nc4ccccc4c3o2)cc1`, the IC50 is 6.08 µM.

`O=C(NNc1ccnc2cc(Cl)ccc12)C1CCCCC1`: the IC50 is 0.33 µM.

On to `Cc1ccc2nc(SCC(=O)Nc3cc(C(F)(F)F)ccc3N3CCOCC3)[nH]c2c1`, for which the IC50 is 25.6 µM (inactive).

Turning to `O=C1/C(=C/c2ccc(N3CCOCC3)o2)SC(=Nc2ccccc2)N1CCc1c[nH]c2ccccc12`, the IC50 was 13.8 µM.

Consider `CC(C)CCOc1cccc(OCC(=O)Nc2ccncc2)c1`, for which the half-inhibitory concentration (IC50) is 1.97 µM.

`Cc1ccc(C(=O)c2cc([N+](=O)[O-])ccc2N2CCOCC2)cc1C`: the half-inhibitory concentration (IC50) is 10.3 µM.

Regarding `CC(Oc1ccc(Cl)cc1Cl)c1nc(-c2ccc(NC(=O)c3ccncc3)cc2)no1` (configuration not stated), the IC50 was 2.39 µM.

For `COc1cc(Cn2c(-c3nonc3N)nc3ccccc32)ccc1C`, the IC50 is 1.08 µM.

For the compound `CCC1CCCCN1C(=O)c1cc(COc2ccc3ncccc3c2)on1` (configuration not stated), the IC50 was 2.44 µM.

In the case of `CCC/C(O)=C1\C(=O)CC(C)(C)CC1=Nc1ccc(OC)cc1OC`, the 50% inhibitory concentration (IC50) is 18.4 µM.

As for `O=C(Nc1ccc(C(F)(F)F)cc1)c1cccn(Cc2ccc3c(c2)OC(F)(F)O3)c1=O`, the IC50 is 22.5 µM (inactive).

As for `O=c1oc2ccccc2cc1-c1cn(-c2ccccc2)c(=S)[nH]1`, the half-maximal inhibitory concentration (IC50) is 4.59 µM.

Regarding `COc1ccc(C2=Nn3c(nnc3-c3ccccc3OC)SC2)cc1OC1CCCC1`, the half-maximal inhibitory concentration (IC50) was 3.68 µM.

`CCCCCCCCCCCCCCCC[n+]1ccc(/C=N/O)cc1`: the IC50 was 20.7 µM (inactive).

As for `Cc1ccc(N(C)S(=O)(=O)c2ccc(-c3cnc(C4CC4)o3)cc2)cc1`, the IC50 was 4.53 µM.

As to `COc1ccccc1NC(=O)Cn1nnc(C(=O)NCc2cccs2)c1N`, the IC50 was 1.93 µM.

`CCOc1ccccc1NS(=O)(=O)c1ccc(-c2cnc(C3CC3)o2)cc1`: the IC50 was 1.79 µM.

Turning to `CCOC(=O)c1c(C)[nH]c(C(=O)N/N=C/c2ccc(Br)cc2)c1C`, the IC50 is below 0.16 µM.

Turning to `COc1cc(C2c3cc4c(cc3C(OC3OC5COC(c6cccs6)OC5C(O)C3O)C3COC(=O)C23)OCO4)cc(OC)c1O` (configuration not stated), the IC50 was > 80 µM (inactive).

As to `COc1cccc(-c2cc(C(=O)Nc3cc(C)n(Cc4ccc(Cl)cc4)n3)no2)c1`, the IC50 was 4.24 µM.

For the compound `CCOc1ccccc1NC(=O)CN(c1ccc(OC)cc1)S(=O)(=O)c1c(C)noc1C`, the IC50 was 16.9 µM.

With `Cc1c(C)c2cccnc2c2ncccc12`, the IC50 is 23.1 µM (inactive).

As for `COc1ccc(Nc2nc(-c3sc(C)nc3C)cs2)cc1`, the half-maximal inhibitory concentration (IC50) was 6.91 µM.

With `Cc1cc(-n2c(C)cc(C(=O)CSc3ncnc4ccccc34)c2C)no1`, the 50% inhibitory concentration (IC50) was 3 µM.

Consider `CCOc1ccccc1N1CC(O)=C(c2nc3ccccc3s2)C1=N`, for which the IC50 is 8.73 µM.

On to `CCn1ncc(C2=NOC(C(=O)NCc3ccccc3)C2)c1C` (configuration not stated), for which the IC50 is 2.39 µM.

As for `COc1cc(Nc2ccc(C)cc2)c([N+](=O)[O-])nc1[N+](=O)[O-]`, the half-inhibitory concentration (IC50) is 19.9 µM.

On to `COc1cc(CC(=O)OCC(=O)c2ccc3c(c2)OCCO3)cc(OC)c1OC`, for which the IC50 is 0.67 µM.
